Patent publication US11535621B2, “Heterobicyclic amides as inhibitors of CD38” (Ribon Therapeutics, Inc., priority 2019, dated 2022)

Molecular target: Human CD38 (Homo sapiens (Human), UniProt P28907)
Test: CD38 enzyme assay
Format: biochemical
Settings: 2 nM CD38, NAD+ substrate, absorbance at 405 nm
Text: [formula] where SUBcmpd is the subtracted value for the individual compound treated well, SUBmin is the average of the subtracted values of the 4-(((1r,4r)-4-(2-methoxyethoxy)cyclohexyl)amino)-1-methyl-6-(thiazol-5-yl)quinolin-2(1H)-one positive control wells and SUBmax is the average of the subtracted values of the DMSO negative control wells.
The % inhibition values were plotted as a function of compound concentration and the following 4-parameter fit was applied to derive the IC50 values:
[formula] where top and bottom are normally allowed to float, but may be fixed at 100 or 0 respectively in a 3-parameter fit. The Hill Coefficient is normally allowed to float but may also be fixed at 1 in a 3-parameter fit. Y is the % inhibition and X is the compound concentration.

Sequence of Human CD38 (P28907 whole entry): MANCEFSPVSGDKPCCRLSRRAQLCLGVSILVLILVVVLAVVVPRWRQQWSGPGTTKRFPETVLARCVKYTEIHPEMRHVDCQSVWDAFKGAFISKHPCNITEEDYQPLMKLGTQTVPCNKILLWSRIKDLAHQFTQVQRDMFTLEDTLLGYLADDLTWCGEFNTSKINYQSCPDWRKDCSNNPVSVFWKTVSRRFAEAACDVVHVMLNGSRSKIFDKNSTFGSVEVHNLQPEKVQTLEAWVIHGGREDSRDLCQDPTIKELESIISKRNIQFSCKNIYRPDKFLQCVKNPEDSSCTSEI

Structure (SMILES) | IC50 [nM]
COCCO[C@H]1CC[C@H](NC(=O)c2nc(-n3ccnc3)nc3cn[nH]c23)CC1 [Example 23, 5-(1H-Imidazol-1-yl)-N-((1r,4r)-4-(2-methoxyethoxy)cyclohexyl)-1H-pyrazolo[4,3-d]pyrimidine-7-carboxamide] | 10 to 100
COCCO[C@H]1CC[C@H](NC(=O)c2cc(-n3ccnc3)nc3ccsc23)CC1 [Example 24, 5-(1H-Imidazol-1-yl)-N-((1r,4r)-4-(2-methoxyethoxy)cyclohexyl)thieno[3,2-b]pyridine-7-carboxamide] | 10 to 100
COCCO[C@H]1CC[C@H](NC(=O)c2nc(-n3ccnc3)nc3ncsc23)CC1 [Example 25, 5-(1H-Imidazol-1-yl)-N-((1r,4r)-4-(2-methoxyethoxy)cyclohexyl)thiazolo[4,5-d]pyrimidine-7-carboxamide] | 100 to 1000
COCCO[C@H]1CC[C@H](NC(=O)c2nc(-n3ccnc3)cc3nc[nH]c23)CC1 [Example 26, 6-(1H-Imidazol-1-yl)-N-((1r,4r)-4-(2-methoxyethoxy)cyclohexyl)-3H-imidazo[4,5-c]pyridine-4-carboxamide] | 10 to 100
O=C(NC1CCCOC1)c1nc(-n2ccnc2)nc2cc[nH]c12 (centres unmarked) [Example 27, 2-(1H-Imidazol-1-yl)-N-(tetrahydro-2H-pyran-3-yl)-5H-pyrrolo[3,2-d]pyrimidine-4-carboxamide] | < 10
COCCO[C@H]1CC[C@H](NC(=O)c2cc(-n3ccnc3)c(F)c3cc[nH]c23)CC1 [Example 29, 4-Fluoro-5-(1H-imidazol-1-yl)-N-((1r,4r)-4-(2-methoxyethoxy)cyclohexyl)-1H-indole-7-carboxamide] | 100 to 1000
COCCO[C@H]1CC[C@H](NC(=O)c2cc(-n3ccnc3)cc3nc(C)[nH]c23)CC1 [Example 30, 5-(1H-imidazol-1-yl)-N-((1r,4r)-4-(2-methoxyethoxy)cyclohexyl)-2-methyl-1H-benzo[d]imidazole-7-carboxamide] | 100 to 1000
O=C(NCc1c(F)cccc1C(F)(F)F)c1cc(-c2cncs2)cc2cc[nH]c12 [Example 31, N-(2-Fluoro-6-(trifluoromethyl)benzyl)-5-(thiazol-5-yl)-1H-indole-7-carboxamide] | 10 to 100
COCCO[C@H]1CC[C@H](NC(=O)c2nc(-c3cncs3)nc3cc[nH]c23)CC1 [Example 32, N-((1r,4r)-4-(2-Methoxyethoxy)cyclohexyl)-2-(thiazol-5-yl)-5H-pyrrolo[3,2-d]pyrimidine-4-carboxamide] | 10 to 100
O=C(NCc1c(F)cccc1C(F)(F)F)c1nc(-c2cncs2)cc2nc[nH]c12 [Example 33, N-(2-Fluoro-6-(trifluoromethyl)benzyl)-6-(thiazol-5-yl)-3I-imidazo[4,5-c]pyridine-4-carboxamide] | > 1000
COCCO[C@H]1CC[C@H](NC(=O)c2nc(-n3ccnc3C)nc3cc[nH]c23)CC1 [Example 34, N-((1r,4r)-4-(2-Methoxyethoxy)cyclohexyl)-2-(2-methyl-1H-imidazol-1-yl)-5H-pyrrolo[3,2-d]pyrimidine-4-carboxamide] | > 1000
COCCO[C@H]1CC[C@H](NC(=O)c2nc(-c3cn[nH]n3)nc3cc[nH]c23)CC1 [Example 35, N-((1r,4r)-4-(2-Methoxyethoxy)cyclohexyl)-2-(2H-1,2,3-triazol-4-yl)-5H-pyrrolo[3,2-d]pyrimidine-4-carboxamide] | > 1000
COCCO[C@H]1CC[C@H](NC(=O)c2nc(-n3cncc3C)nc3cc[nH]c23)CC1 [Example 36, N-((1r,4r)-4-(2-Methoxyethoxy)cyclohexyl)-2-(5-methyl-1H-imidazol-1-yl)-5H-pyrrolo[3,2-d]pyrimidine-4-carboxamide] | 10 to 100
COCCO[C@H]1CC[C@H](NC(=O)c2nc(-n3cnc(C)c3)nc3cc[nH]c23)CC1 [Example 37, N-((1r,4r)-4-(2-methoxyethoxy)cyclohexyl)-2-(4-methyl-1H-imidazol-1-yl)-5H-pyrrolo[3,2-d]pyrimidine-4-carboxamide] | > 1000
COCCO[C@H]1CC[C@H](NC(=O)c2nc(-c3c[nH]cn3)nc3cc[nH]c23)CC1 [Example 38, 2-(1H-Imidazol-4-yl)-N-((1r,4r)-4-(2-methoxyethoxy)cyclohexyl)-5H-pyrrolo[3,2-d]pyrimidine-4-carboxamide] | > 1000
O=C(N[C@H]1CC[C@@H](C(F)(F)F)CC1)c1nc(-n2ccnc2)nc2cc[nH]c12 [Example 39a, 2-(1H-Imidazol-1-yl)-N-((1s,4s)-4-(trifluoromethyl)cyclohexyl)-5H-pyrrolo[3,2-d]pyrimidine-4-carboxamide] | < 10
O=C(N[C@H]1CC[C@H](C(F)(F)F)CC1)c1nc(-n2ccnc2)nc2cc[nH]c12 [Example 39b, 2-(1H-imidazol-1-yl)-N-((1r,4r)-4-(trifluoromethyl)cyclohexyl)-5H-pyrrolo[3,2-d]pyrimidine-4-carboxamide] | < 10
COCCO[C@H]1CC[C@H](NC(=O)c2cc(-n3ccnc3)cc3cnsc23)CC1 [Example 41, 5-(1H-Imidazol-1-yl)-N-((1r,4r)-4-(2-methoxyethoxy)cyclohexyl)benzo[d]isothiazole-7-carboxamide] | 100 to 1000
Cc1nc2cc(-n3ccnc3)cc(C(=O)NCc3c(F)cccc3C(F)(F)F)c2[nH]1 [Example 42, N-(2-Fluoro-6-(trifluoromethyl)benzyl)-5-(1H-imidazol-1-yl)-2-methyl-1H-benzo[d]imidazole-7-carboxamide] | 100 to 1000
O=C(NCc1c(F)cccc1C(F)(F)F)c1nc(-c2cncs2)nc2cc[nH]c12 [Example 43, N-(2-Fluoro-6-(trifluoromethyl)benzyl)-2-(thiazol-5-yl)-5H-pyrrolo[3,2-d]pyrimidine-4-carboxamide] | 100 to 1000
O=C(NCc1c(F)cccc1C(F)(F)F)c1cc(-n2ccnc2)nc2cc[nH]c12 [Example 44, N-(2-Fluoro-6-(trifluoromethyl)benzyl)-5-(1H-imidazol-1-yl)-1H-pyrrolo[3,2-b]pyridine-7-carboxamide] | 10 to 100
COCCO[C@H]1CC[C@H](NC(=O)c2cc(-c3cncs3)cc3cc(C)[nH]c23)CC1 [Example 45, N-((1r,4r)-4-(2-Methoxyethoxy)cyclohexyl)-2-methyl-5-(thiazol-5-yl)-1H-indole-7-carboxamide] | 100 to 1000
O=C(NCc1c(F)cccc1C(F)(F)F)c1nc(-n2ccnc2)nc2nc[nH]c12 [Example 46, N-(2-Fluoro-6-(trifluoromethyl)benzyl)-2-(1H-imidazol-1-yl)-7H-purine-6-carboxamide] | 10 to 100

Further lines, results first:

IC50 [nM] | Structure (SMILES)
> 1000 | COCCO[C@H]1CC[C@H](NC(=O)c2nc(-c3cncs3)cc3nc[nH]c23)CC1 [Example 47, N-((1r,4r)-4-(2-Methoxyethoxy)cyclohexyl)-6-(thiazol-5-yl)-3H-imidazo[4,5-c]pyridine-4-carboxamide]
10 to 100 | O=C(NCc1c(F)cccc1C(F)(F)F)c1nc(-n2ccnc2)cc2cn[nH]c12 [Example 48, N-(2-Fluoro-6-(trifluoromethyl)benzyl)-5-(1H-imidazol-1-yl)-1H-pyrazolo[3,4-c]pyridine-7-carboxamide]
10 to 100 | O=C(NCc1c(F)cccc1C(F)(F)F)c1nc(-n2ccnc2)nc2ccsc12 [Example 49, N-(2-Fluoro-6-(trifluoromethyl)benzyl)-2-(1H-imidazol-1-yl)thieno[3,2-d]pyrimidine-4-carboxamide]
10 to 100 | COCCO[C@H]1CC[C@H](NC(=O)c2nc(-c3cncs3)nc3ccsc23)CC1 [Example 50, N-((1r,4r)-4-(2-Methoxyethoxy)cyclohexyl)-2-(thiazol-5-yl)thieno[3,2-d]pyrimidine-4-carboxamide]
10 to 100 | O=C(NCc1c(F)cccc1C(F)(F)F)c1nc(-n2ccnc2)nc2cc[nH]c12 [Example 51, N-(2-Fluoro-6-(trifluoromethyl)benzyl)-2-(1H-imidazol-1-yl)-5H-pyrrolo[3,2-d]pyrimidine-4-carboxamide]
10 to 100 | O=C(NC1CCN(CC(F)(F)F)CC1)c1nc(-n2ccnc2)nc2cc[nH]c12 [Example 52, 2-(1H-Imidazol-1-yl)-N-(1-(2,2,2-trifluoroethyl)piperidin-4-yl)-5H-pyrrolo[3,2-d]pyrimidine-4-carboxamide]
100 to 1000 | COCCN1CCC(NC(=O)c2nc(-n3ccnc3)nc3cc[nH]c23)CC1 [Example 53, 2-(1H-Imidazol-1-yl)-N-(1-(2-methoxyethyl)piperidin-4-yl)-5H-pyrrolo[3,2-d]pyrimidine-4-carboxamide]
> 1000 | O=C(NC1CCNCC1)c1nc(-n2ccnc2)nc2cc[nH]c12 [Example 54, 2-(1H-Imidazol-1-yl)-N-(piperidin-4-yl)-5H-pyrrolo[3,2-d]pyrimidine-4-carboxamide]
10 to 100 | O=C(NC1CCN(CCC(F)(F)F)CC1)c1nc(-n2ccnc2)nc2cc[nH]c12 [Example 55, 2-(1H-Imidazol-1-yl)-N-(1-(3,3,3-trifluoropropyl)piperidin-4-yl)-5H-pyrrolo[3,2-d]pyrimidine-4-carboxamide]
10 to 100 | COCCN[C@H]1CC[C@H](NC(=O)c2nc(-n3ccnc3)nc3cc[nH]c23)CC1 [Example 56, 2-(1H-Imidazol-1-yl)-N-((1r,4r)-4-((2-methoxyethyl)amino)cyclohexyl)-5H-pyrrolo[3,2-d]pyrimidine-4-carboxamide]
10 to 100 | COCCN(C)[C@H]1CC[C@H](NC(=O)c2nc(-n3ccnc3)nc3cc[nH]c23)CC1 [Example 57, 2-(1H-Imidazol-1-yl)-N-((1r,4r)-4-((2-methoxyethyl)(methyl)amino)cyclohexyl)-5H-pyrrolo[3,2-d]pyrimidine-4-carboxamide]
< 10 | CO[C@H]1CC[C@H](NC(=O)c2nc(-n3ccnc3)nc3cc[nH]c23)CC1 [Example 58, 2-(1H-Imidazol-1-yl)-N-((1r,4r)-4-methoxycyclohexyl)-5H-pyrrolo[3,2-d]pyrimidine-4-carboxamide]
